Assay results from PMC2775811 (The Journal of neuroscience : the official journal of the …, 2009).

Legend:
Hsp70 = Hsp70 (Homo sapiens, UniProt P0DMV8); test: malachite green ATPase assay, 8-point dose dependence; assay type: biochemical
Hsc70 = Hsc70 (Homo sapiens, UniProt P11142); test: […]-1H HSQC-TROSY NMR titration, […]-labelled apo-Hsc70; assay type: binding

| SMILES | IC50 (Hsp70) | Kd (Hsc70) |
| --- | --- | --- |
| CNc1ccc2nc3ccc(N)cc3[s+]c2c1 [AC, azure C] | 11 µM | – |
| CN(C)c1ccc2nc3ccc(=[N+](C)C)cc-3sc2c1 [MB, methylene blue] | 83 µM | ~1 µM |
| O=c1c(O)c(-c2cc(O)c(O)c(O)c2)oc2cc(O)cc(O)c12 [MY, myricetin] | 12 µM | – |
